Data as given in PubChem BioAssay (NCI).
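Each compound was tested at five concentrations against cells in 96-well plates for 48 hours. TGI: concentration producing complete growth inhibition.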

Experiments:
Assay in all cases: NCI-60 cell line screen, 48 h
[1] = system: K-562 leukemia
[2] = system: SNB-75 CNS
[3] = system: DLD-1 colon
[4] = system: HL-60(TB) leukemia
[5] = system: SN12C renal
[6] = system: RXF-631 renal
[7] = system: SK-OV-3 ovarian
[8] = system: U251 CNS
[9] = system: HCC-2998 colon
[10] = system: MALME-3M melanoma
[11] = system: SF-539 CNS
[12] = system: HOP-92 NSCLC
[13] = system: MOLT-4 leukemia
[14] = system: KM20L2 colon
[15] = system: ACHN renal
[16] = system: OVCAR-3 ovarian
[17] = system: SR leukemia
[18] = system: 786-0 renal
[19] = system: SF-295 CNS
[20] = system: NCI-H460 lung
[21] = system: IGROV1 ovarian
[22] = system: XF 498 CNS
[23] = system: NCI-H23 lung
[24] = system: OVCAR-8 ovarian
[25] = system: SK-MEL-2 melanoma
[26] = system: HT29 colon
[27] = system: A549 NSCLC
[28] = system: RPMI-8226 leukemia
[29] = system: NCI-H226 lung
[30] = system: UACC-257 melanoma
[31] = system: UO-31 renal
[32] = system: SK-MEL-5 melanoma
[33] = system: KM12 colon
[34] = system: OVCAR-4 ovarian
[35] = system: SK-MEL-28 melanoma
[36] = system: CAKI-1 renal
[37] = system: DMS 114 small cell lung
[38] = system: SNB-19 CNS
[39] = system: RXF 393 renal
[40] = system: LXFL 529 NSCLC
[41] = system: DMS 273 small cell lung
[42] = system: M19-MEL melanoma
[43] = system: SF-268 CNS
[44] = system: UACC-62 melanoma
[45] = system: M14 melanoma
[46] = system: NCI-H522 lung
[47] = system: COLO 205 colon
[48] = system: TK-10 renal
[49] = system: EKVX NSCLC
[50] = system: SNB-78 CNS
[51] = system: OVCAR-5 ovarian
[52] = system: SW-620 colon
[53] = system: LOX IMVI melanoma
[54] = system: HCT-116 colon
[55] = system: HOP-18 NSCLC
[56] = system: A498 renal
[57] = system: HOP-62 NSCLC
[58] = system: CCRF-CEM leukemia
[59] = system: HCT-15 colon

Structure (SMILES): Cn1c(=O)c(C(c2ccccc2)c2c(O)c3ccccc3n(C)c2=O)c(O)c2ccccc21
- TGI [1]: > 100 µM
- TGI [2]: > 100 µM
- TGI [3]: > 100 µM
- TGI [4]: > 100 µM
- TGI [5]: > 100 µM
- TGI [6]: > 100 µM
- TGI [7]: > 100 µM
- TGI [8]: > 100 µM
- TGI [9]: > 100 µM
- TGI [10]: > 100 µM
- TGI [11]: > 100 µM
- TGI [12]: > 100 µM
- TGI [13]: > 100 µM
- TGI [14]: > 100 µM
- TGI [15]: > 100 µM
- TGI [16]: > 100 µM
- TGI [17]: > 100 µM
- TGI [18]: > 100 µM
- TGI [19]: > 100 µM
- TGI [20]: > 100 µM
- TGI [21]: > 100 µM
- TGI [22]: > 100 µM
- TGI [23]: > 100 µM
- TGI [24]: > 100 µM
- TGI [25]: > 100 µM
- TGI [26]: > 100 µM
- TGI [27]: > 100 µM
- TGI [28]: > 100 µM
- TGI [29]: 65.9 µM
- TGI [30]: > 100 µM
- TGI [31]: > 100 µM
- TGI [32]: > 100 µM
- TGI [33]: > 100 µM
- TGI [34]: > 100 µM
- TGI [35]: > 100 µM
- TGI [36]: > 100 µM
- TGI [37]: > 100 µM
- TGI [38]: > 100 µM
- TGI [39]: > 100 µM
- TGI [40]: > 100 µM
- TGI [41]: > 100 µM
- TGI [42]: > 100 µM
- TGI [43]: > 100 µM
- TGI [44]: > 100 µM
- TGI [45]: > 100 µM
- TGI [46]: > 100 µM
- TGI [47]: > 100 µM
- TGI [48]: > 100 µM
- TGI [49]: > 100 µM
- TGI [50]: > 100 µM
- TGI [51]: 93.1 µM
- TGI [52]: > 100 µM
- TGI [53]: > 100 µM
- TGI [54]: > 100 µM
- TGI [55]: > 100 µM

Structure (SMILES): COc1ccc2oc(-c3ccncc3)cc(=O)c2c1
- TGI [1]: > 100 µM
- TGI [2]: > 100 µM
- TGI [3]: > 100 µM
- TGI [4]: > 100 µM
- TGI [5]: > 100 µM
- TGI [6]: > 100 µM
- TGI [8]: > 100 µM
- TGI [9]: > 100 µM
- TGI [10]: > 100 µM
- TGI [12]: > 100 µM
- TGI [13]: > 100 µM
- TGI [15]: > 100 µM
- TGI [16]: > 100 µM
- TGI [18]: > 100 µM
- TGI [19]: > 100 µM
- TGI [20]: > 100 µM
- TGI [21]: > 100 µM
- TGI [22]: > 100 µM
- TGI [23]: > 100 µM
- TGI [56]: > 100 µM
- TGI [57]: > 100 µM
- TGI [25]: > 100 µM
- TGI [26]: > 100 µM
- TGI [28]: > 100 µM
- TGI [29]: > 100 µM
- TGI [58]: > 100 µM
- TGI [30]: > 100 µM
- TGI [31]: > 100 µM
- TGI [33]: > 100 µM
- TGI [34]: > 100 µM
- TGI [35]: > 100 µM
- TGI [36]: > 100 µM
- TGI [37]: > 100 µM
- TGI [38]: > 100 µM
- TGI [39]: > 100 µM
- TGI [40]: > 100 µM
- TGI [41]: > 100 µM
- TGI [43]: > 100 µM
- TGI [44]: > 100 µM
- TGI [59]: > 100 µM
- TGI [45]: > 100 µM
- TGI [47]: > 100 µM
- TGI [51]: > 100 µM
- TGI [53]: > 100 µM
- TGI [54]: > 100 µM

Structure (SMILES): COc1cc(C2[C@H]3C(=O)N(c4ccc(Cc5ccc(N6C(=O)[C@@H]7ON(c8ccccc8)C(c8cc(OC)c(OC)c(OC)c8)[C@@H]7C6=O)cc5)cc4)C(=O)[C@H]3ON2c2ccccc2)cc(OC)c1OC (stereo partly specified)
- TGI [1]: > 100 µM
- TGI [2]: > 100 µM
- TGI [3]: > 100 µM
- TGI [4]: > 100 µM
- TGI [5]: > 100 µM
- TGI [6]: > 100 µM
- TGI [7]: > 100 µM
- TGI [8]: > 100 µM
- TGI [9]: > 100 µM
- TGI [10]: > 100 µM
- TGI [11]: > 100 µM
- TGI [13]: > 100 µM
- TGI [14]: > 100 µM
- TGI [15]: > 100 µM
- TGI [16]: > 100 µM
- TGI [17]: > 100 µM
- TGI [18]: > 100 µM
- TGI [19]: > 100 µM
- TGI [20]: > 100 µM
- TGI [21]: > 100 µM
- TGI [23]: > 100 µM
- TGI [56]: > 100 µM
- TGI [57]: > 100 µM
- TGI [24]: > 100 µM
- TGI [25]: > 100 µM
- TGI [26]: > 100 µM
- TGI [27]: > 100 µM
- TGI [28]: > 100 µM
- TGI [29]: > 100 µM
- TGI [58]: > 100 µM
- TGI [30]: > 100 µM
- TGI [31]: > 100 µM
- TGI [32]: > 100 µM
- TGI [33]: > 100 µM
- TGI [34]: > 100 µM
- TGI [35]: > 100 µM
- TGI [36]: > 100 µM
- TGI [37]: > 100 µM
- TGI [38]: > 100 µM
- TGI [39]: > 100 µM
- TGI [41]: > 100 µM
- TGI [42]: > 100 µM
- TGI [43]: > 100 µM
- TGI [44]: > 100 µM
- TGI [59]: > 100 µM
- TGI [45]: 48.6 µM
- TGI [46]: > 100 µM
- TGI [47]: > 100 µM
- TGI [48]: > 100 µM
- TGI [49]: > 100 µM
- TGI [50]: > 100 µM
- TGI [51]: > 100 µM
- TGI [52]: > 100 µM
- TGI [53]: > 100 µM
- TGI [54]: > 100 µM
- TGI [55]: > 100 µM
